Test results taken from patent publication US20230265151A1, “GIP/GLP1 CO-AGONIST COMPOUNDS” (priority 2020, published 2023).
Like-named read-outs stand apart in the source and are kept apart here.

Experiments:
[1] = target: T1, hGCGR (Homo sapiens, UniProt P47871); assay: Functional cAMP formation (HTRF) in HEK-293 clonal cells expressing hGCGR, 0.1% bovine casein, without or with 1.0% human serum albumin; type: cell-based; conditions: geometric mean, read-out: hGCGR EC50, nM (SEM, n)
T1 construct: expressed in transfected cells
T1 sequence (P47871 26-477): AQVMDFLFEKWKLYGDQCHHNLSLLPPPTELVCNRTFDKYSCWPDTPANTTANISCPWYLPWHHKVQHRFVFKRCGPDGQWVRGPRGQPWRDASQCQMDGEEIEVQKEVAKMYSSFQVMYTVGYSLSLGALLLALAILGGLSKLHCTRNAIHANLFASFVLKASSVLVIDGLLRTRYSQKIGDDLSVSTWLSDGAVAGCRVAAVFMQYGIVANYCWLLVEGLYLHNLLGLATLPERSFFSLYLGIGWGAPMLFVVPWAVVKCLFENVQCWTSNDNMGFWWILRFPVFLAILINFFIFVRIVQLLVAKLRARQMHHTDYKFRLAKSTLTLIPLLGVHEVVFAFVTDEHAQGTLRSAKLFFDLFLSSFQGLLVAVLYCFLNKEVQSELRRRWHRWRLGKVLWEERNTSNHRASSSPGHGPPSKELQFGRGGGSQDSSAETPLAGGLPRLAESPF
How it was run: (§1)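 Cells were stimulated with peptide for 30 min at 37° C, then lysed in buffer carrying cAMP-d2 and anti-cAMP Eu3+-cryptate for a competitive HTRF read after at least 60 min at room temperature. The 665/620 nm ratio was converted to nM cAMP against a standard curve.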

[2] = target: hGLP-1R (Homo sapiens, UniProt P43220); assay: Functional cAMP formation (HTRF) in HEK-293 clonal cells expressing hGLP-1R, 0.1% bovine casein, without or with 1.0% human serum albumin; type: cell-based; set-up: expressed in transfected cells; conditions: for Emax: HEK293, 0.1% bovine casein and 1.0% human serum albumin, percent of maximal response to GLP-1(7-36)NH2, read-out: hGLP-1R Emax, % ± SEM; for EC50: geometric mean, read-out: hGLP-1R EC50, nM (SEM, n)
hGLP-1R, sequence (P43220 24-463): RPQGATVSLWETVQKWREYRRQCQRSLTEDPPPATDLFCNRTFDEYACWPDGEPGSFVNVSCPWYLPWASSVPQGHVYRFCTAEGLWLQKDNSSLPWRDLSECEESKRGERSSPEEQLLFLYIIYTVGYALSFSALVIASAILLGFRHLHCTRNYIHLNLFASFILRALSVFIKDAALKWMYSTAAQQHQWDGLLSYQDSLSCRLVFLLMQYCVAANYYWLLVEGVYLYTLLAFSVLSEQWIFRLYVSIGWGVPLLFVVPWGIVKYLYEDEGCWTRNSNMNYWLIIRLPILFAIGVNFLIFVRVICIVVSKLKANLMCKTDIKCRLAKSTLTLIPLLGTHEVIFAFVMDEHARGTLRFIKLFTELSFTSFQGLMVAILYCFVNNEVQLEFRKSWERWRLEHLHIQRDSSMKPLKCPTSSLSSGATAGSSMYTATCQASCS
How it was run: as §1

[3] = target: T2, human GIP receptor (hGIPR) (Homo sapiens, UniProt P48546); assay: [125I]-GIP binding, SPA with membranes of CHO cells expressing hGIPR; conditions: human GIPR; geometric mean (SEM, n); read-out: Binding Affinity Ki, nM (SEM, n) hGIPR
T2 construct: expressed in transfected cells; crude membranes
T2 sequence (P48546 22-466): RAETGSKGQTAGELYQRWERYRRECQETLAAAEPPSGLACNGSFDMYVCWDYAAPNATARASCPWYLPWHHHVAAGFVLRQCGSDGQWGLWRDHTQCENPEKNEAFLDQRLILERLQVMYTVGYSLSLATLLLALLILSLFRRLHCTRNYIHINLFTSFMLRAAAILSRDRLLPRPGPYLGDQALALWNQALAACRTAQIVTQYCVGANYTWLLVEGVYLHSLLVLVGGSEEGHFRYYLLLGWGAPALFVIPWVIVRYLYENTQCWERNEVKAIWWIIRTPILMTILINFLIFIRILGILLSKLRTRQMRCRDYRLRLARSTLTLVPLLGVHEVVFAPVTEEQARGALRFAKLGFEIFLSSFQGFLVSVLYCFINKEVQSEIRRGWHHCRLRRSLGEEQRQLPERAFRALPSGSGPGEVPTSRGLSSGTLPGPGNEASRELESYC

[4] = target: T3, hGIPR (Homo sapiens, UniProt P48546); assay: Functional cAMP formation (HTRF) in HEK-293 clonal cells expressing hGIPR, 0.1% bovine casein, without or with 1.0% human serum albumin; type: cell-based; conditions: for Emax: read-out: hGIPR Emax, % ± SEM; for EC50: geometric mean, read-out: hGIPR EC50, nM (SEM, n)
T3 construct: expressed in transfected cells
T3 sequence (P48546 22-466): T2 sequence (P48546 22-466)
How it was run: as §1

[5] = target: T4, human GLP-1 receptor (hGLP-1R) (Homo sapiens, UniProt P43220); assay: [125I]-GLP-1 binding, SPA with membranes of HEK293 cells expressing hGLP-1R; conditions: human GLP-1R; geometric mean (SEM, n); read-out: Binding Affinity Ki, nM (SEM, n) hGLP-1R
T4 construct: expressed in transfected cells; crude membranes
T4 sequence (P43220 24-463): as the sequence (P43220 24-463) above

[6] = 0.1% bovine casein and 1.0% human serum albumin, 37° C.
[7] = cAMP, incubated at 37° C., 0.1% bovine casein (no human serum albumin)
[8] = HEK293, 0.1% bovine casein and 1.0% human serum albumin, 37° C., percent of maximal response to GIP(1-42)NH2
[9] = HEK293, percent of maximal response to GIP(1-42)NH2, 37° C., 0.1% bovine casein, arithmetic mean
[10] = cAMP, 37° C., 0.1% bovine casein (no human serum albumin)

Row | Compound | EC50 [1, 6] [nM] | EC50 [1, 7] [nM] | Emax ([2]; 37° C.) [%] | EC50 [2, 7] [nM] | Ki [3] [nM] | Emax [4, 8] [%] | Emax [4, 9] [%] | EC50 [4, 7] [nM] | Ki [5] [nM] | EC50 [2, 6] [nM] | EC50 [4, 6] [nM] | EC50 [1, 10] [nM] | EC50 [2, 10] [nM] | EC50 [4, 10] [nM]
1 | CC[C@H](C)[C@H](NC(=O)[C@H](CC(C)C)NC(=O)[C@](C)(Cc1ccc(O)cc1)NC(=O)[C@@H](CCC(=O)O)NC(=O)[C@@H](NC(=O)[C@H](Cc1ccccc1)NC(=O)[C@H](CCC(=O)O)NC(=O)C(C)(C)NC(=O)[C@H](CCC(N)=O)NC(=O)[C@H](C)NC(=O)[C@H](CCCCNC(=O)COCCOCCNC(=O)COCCOCCNC(=O)CC[C@H](NC(=O)CCCCCCCCCCCCC(=O)O)C(=O)O)NC(=O)[C@H](CCCN)NC(=O)[C@H](CC(=O)O)NC(=O)[C@H](CC(C)C)NC(=O)[C@](C)(CC(C)C)NC(=O)[C@@H](NC(=O)[C@H](CO)NC(=O)[C@H](Cc1ccc2ccccc2c1)NC(=O)[C@H](CC(=O)O)NC(=O)[C@H](CO)NC(=O)[C@@H](NC(=O)[C@](C)(Cc1ccccc1F)NC(=O)[C@@H](NC(=O)CNC(=O)[C@H](CCC(=O)O)NC(=O)C(C)(C)NC(=O)[C@@H](N)Cc1ccc(O)cc1)[C@@H](C)O)[C@@H](C)O)[C@@H](C)CC)[C@@H](C)CC)C(=O)N[C@@H](CCC(=O)O)C(=O)NCC(=O)NCC(=O)N[C@@H](CCCCNC(=O)COCCOCCNC(=O)COCCOCCNC(=O)CC[C@H](NC(=O)CCCCCCCCCCCCC(=O)O)C(=O)O)C(=O)N[C@@H](CO)C(=O)N[C@@H](CO)C(=O)NCC(=O)N[C@@H](C)C(=O)N1CCC[C@H]1C(=O)N1CCC[C@H]1C(=O)N1CCC[C@H]1C(=O)N[C@@H](CO)C(N)=O [Example 57] | > 9950 | > 9950 | 114 ± 7.39 | 0.14 | 0.297 | 92.1 ± 5.54 | 91.5 ± 4.94 | 0.0135 | 4.35 | – | – | – | – | –
2 | CC[C@H](C)[C@H](NC(=O)[C@H](CC(C)C)NC(=O)[C@](C)(Cc1ccc(O)cc1)NC(=O)[C@@H](CCC(=O)O)NC(=O)[C@@H](NC(=O)[C@H](Cc1cc(F)cc(F)c1)NC(=O)[C@H](CCC(=O)O)NC(=O)C(C)(C)NC(=O)[C@H](CCC(N)=O)NC(=O)[C@H](C)NC(=O)[C@H](CCCCNC(=O)COCCOCCNC(=O)COCCOCCNC(=O)CC[C@H](NC(=O)CCCCCCCCCCCCC(=O)O)C(=O)O)NC(=O)[C@H](CCCN)NC(=O)[C@H](CC(=O)O)NC(=O)[C@H](CC(C)C)NC(=O)[C@](C)(CC(C)C)NC(=O)[C@@H](NC(=O)[C@H](CO)NC(=O)[C@H](Cc1ccncc1)NC(=O)[C@H](CC(=O)O)NC(=O)[C@H](CO)NC(=O)[C@@H](NC(=O)[C@](C)(Cc1ccccc1F)NC(=O)[C@@H](NC(=O)CNC(=O)[C@H](CCC(=O)O)NC(=O)C(C)(C)NC(=O)[C@@H](N)Cc1ccc(O)cc1)[C@@H](C)O)[C@@H](C)O)[C@@H](C)CC)[C@@H](C)CC)C(=O)N[C@@H](CCC(=O)O)C(=O)NCC(=O)NCC(=O)N[C@@H](CCCCNC(=O)COCCOCCNC(=O)COCCOCCNC(=O)CC[C@H](NC(=O)CCCCCCCCCCCCC(=O)O)C(=O)O)C(=O)N[C@@H](CO)C(=O)N[C@@H](CO)C(=O)NCC(=O)N[C@@H](C)C(=O)N1CCC[C@H]1C(=O)N1CCC[C@H]1C(=O)N1CCC[C@H]1C(=O)N[C@@H](CO)C(N)=O [Example 65] | > 9950 | > 9950 | – | 0.3 | 0.121 | 93.8 ± 6.73 | 95.2 ± 2.93 | 0.0139 | 1.05 | – | – | – | – | –
3 | CCCCCCCCCCCC(=O)N[C@@H](CCC(=O)NCCOCCOCC(=O)NCCOCCOCC(=O)NCCCC[C@H](NC(=O)[C@H](CO)NC(=O)[C@@H]1CCCN1C(=O)[C@@H]1CCCN1C(=O)[C@@H]1CCCN1C(=O)[C@H](C)NC(=O)CNC(=O)[C@H](CO)NC(=O)[C@H](CO)NC(=O)[C@@H]1CCCN1C(=O)CNC(=O)CNC(=O)[C@H](CCC(=O)O)NC(=O)[C@@H](NC(=O)[C@H](CC(C)C)NC(=O)[C@](C)(Cc1ccc(O)cc1)NC(=O)[C@@H](CCC(=O)O)NC(=O)[C@@H](NC(=O)[C@H](Cc1ccccc1)NC(=O)[C@H](CCC(=O)O)NC(=O)C(C)(C)NC(=O)[C@H](CCC(N)=O)NC(=O)[C@H](C)NC(=O)[C@H](CCCCNC(=O)COCCOCCNC(=O)COCCOCCNC(=O)CC[C@H](NC(=O)CCCCCCCCCCC)C(=O)O)NC(=O)[C@H](CCCN)NC(=O)[C@H](CC(=O)O)NC(=O)[C@H](CC(C)C)NC(=O)[C@](C)(CC(C)C)NC(=O)[C@@H](NC(=O)[C@H](CO)NC(=O)[C@H](Cc1ccncc1)NC(=O)[C@H](CC(=O)O)NC(=O)[C@H](CO)NC(=O)[C@@H](NC(=O)[C@](C)(Cc1ccccc1F)NC(=O)[C@@H](NC(=O)CNC(=O)[C@H](CCC(=O)O)NC(=O)C(C)(C)NC(=O)[C@@H](N)Cc1ccc(O)cc1)[C@@H](C)O)[C@@H](C)O)[C@@H](C)CC)[C@@H](C)CC)[C@@H](C)CC)C(N)=O)C(=O)O [Example 141] | > 9950 | > 9950 | 115 ± 2.04 | – | 0.0291 | 96 ± 7.42 | 98.8 ± 1.09 | – | 0.194 | 5.78 | 0.379 | – | – | –
4 | CCCCCCCCCCCC(=O)N[C@@H](CCC(=O)NCCOCCOCC(=O)NCCOCCOCC(=O)NCCCC[C@H](NC(=O)[C@H](CCCN)NC(=O)[C@H](CC(=O)O)NC(=O)[C@H](CC(C)C)NC(=O)[C@](C)(CC(C)C)NC(=O)[C@@H](NC(=O)C(C)(C)NC(=O)[C@H](CCCCNC(=O)COCCOCCNC(=O)COCCOCCNC(=O)CC[C@H](NC(=O)CCCCCCCCCCC)C(=O)O)NC(=O)[C@H](CC(=O)O)NC(=O)[C@H](CO)NC(=O)[C@@H](NC(=O)[C@](C)(Cc1ccccc1F)NC(=O)[C@@H](NC(=O)CNC(=O)[C@H](CCC(=O)O)NC(=O)C(C)(C)NC(=O)[C@@H](N)Cc1ccc(O)cc1)[C@@H](C)O)[C@@H](C)O)[C@@H](C)CC)C(=O)N[C@@H](C)C(=O)N[C@@H](CCC(N)=O)C(=O)NC(C)(C)C(=O)N[C@@H](CCC(=O)O)C(=O)N[C@@H](Cc1ccccc1)C(=O)N[C@H](C(=O)N[C@H](CCC(=O)O)C(=O)N[C@@](C)(Cc1ccc(O)cc1)C(=O)N[C@@H](CC(C)C)C(=O)N[C@H](C(=O)N[C@@H](CCC(=O)O)C(=O)NCC(=O)NCC(=O)N1CCC[C@H]1C(=O)N[C@@H](CO)C(=O)N[C@@H](CO)C(=O)NCC(=O)N[C@@H](C)C(=O)N1CCC[C@H]1C(=O)N1CCC[C@H]1C(=O)N1CCC[C@H]1C(=O)N[C@@H](CO)C(N)=O)[C@@H](C)CC)[C@@H](C)CC)C(=O)O [Example 292] | > 9950 | – | – | – | 0.0161 | 88.4 | – | – | 0.289 | 4.35 | – | > 9950 | 0.0758 | 0.0062
